Experimental data as given in patent publication US4220641A, “Organic compounds” (Sandoz Ltd., priority 1977, dated 1980).

What was measured:
[1] = test system: mice spleen lymphoctyes stimulated with Concanavalin A; test: lymphocyte stimulation test according to Janossy in vitro; type: cell-based; details: concentrations of 0.01 to 10.0 μg/ml, Concanavalin A stimulated mice spleen lymphocytes
[2] = test system: ear swelling; test: Oxazolon test in mice; type: in vivo; details: 5×70 mg/kg p.o.
Method: (b) Oxazolon test in mice:
A decrease in the ear swelling is observed upon administration of 5×70 mg/kg p.o. of the compound.

SMILES | inhibition of H^3-thymidine incorporation [1] | inhibition of the blastogenese [1] | inhibition of the proliferation rate [1] | ear swelling [2]
CCCC[C@@H](C)[C@@H](O)C1C(=O)N[C@@H](C(C)C)C(=O)N(C)CC(=O)N(C)[C@@H](CC(C)C)C(=O)N[C@@H](C(C)C)C(=O)N(C)[C@@H](CC(C)C)C(=O)N[C@@H](C)C(=O)N[C@H](C)C(=O)N(C)[C@@H](CC(C)C)C(=O)N(C)[C@@H](CC(C)C)C(=O)N(C)[C@@H](C(C)C)C(=O)N1C (some centres unmarked) [dihydrocyclosporin D] | strong inhibition | strong inhibition | strong inhibition | decrease
C/C=C/C[C@@H](C)[C@@H](O)[C@H]1C(=O)N[C@@H](C(C)C)C(=O)N(C)CC(=O)N(C)[C@@H](CC(C)C)C(=O)N[C@@H](C(C)C)C(=O)N(C)[C@@H](CC(C)C)C(=O)N[C@@H](C)C(=O)N[C@H](C)C(=O)N(C)[C@@H](CC(C)C)C(=O)N(C)[C@@H](CC(C)C)C(=O)N(C)[C@@H](C(C)C)C(=O)N1C [cyclosporin D] | strong inhibition | strong inhibition | strong inhibition | decrease
